We go through eleven substances from patent US9618524B2, “Method, composition, isolation and identification of a plaque particle and related biomarker” (Plaxgen Inc., priority 2012, dated 2017).

Experiment in all cases: Mass spectroscopy proteomics, semi-quantitative binding affinity of serum proteins (plaqueproteome, Table 2)
Holding throughout (conditions): higher number = stronger affinity

Test [1] concerns Low density cholesterol (Chl small) plaque particles. Set-up: species or system human. The protocol:
(§1) The goal was to isolate plaque particles synthesized in the bio-fluids in a relatively pure form to enable their subsequent use for identification of components that contribute to the plaque formation. In order to isolate cholesterol plaque particles, the plasma or serum samples obtained from atherosclerotic subjects were first centrifuged at 5,000 rpm for 5 min and the supernatants were transferred to new centrifuge tubes. Next, the supernatants were diluted in PBS to make 50% of the serum and used for incubation with cholesterol oligomers/aggregates. Each assay was performed in 1 mL reaction (800 μL of 50% plasma or serum) and 200 μL (30 μg) of the Cholesterol aggregates and the mixtures were incubated at 37° C. for 1 hr After the incubation, the mixture was directly used for sample acquisition using flow cytometer (FACS ARIA II, BD Biosciences, San Jose, Calif.). […] In order to isolate these fractions, three sets of gates were drawn in the acquisition blot to separately sort and isolate High density or high complex cholesterol particles, Low density or low complex cholesterol particles and both High and low density cholesterol particles together.
(§2) For preparing trypsin digested peptide sequences, the isolated plaque particles were centrifuged at 10000 rpm for 5 min and the pellet containing plaque particles was resuspended in 100 μl PBS buffer. Stock solutions of digestion buffer (Ammonium Biocarbonate 50 mM), reducing buffer (DDT 100 mM) and alkylation buffer (lodoaceamide 100 mM) were prepared and stored at −20° C. for up to two months. For trypsin digestion, 100 μl of each plaque particles (2000 of Abeta-42, cholesterol, Tau and alpha-synuclein) were precipitated using cold acetone −80° C. by adding 4X's the volume. The samples were placed on dry ice for 10 min with intermittent vortex. Next, the samples were centrifuged at 4° C. at 10000 G for 10 min. Top layer of acetone was carefully removed from the tube with care not to disturb the plaque particles pellet. The samples were speed-vac for 10 min to ensure all acetone has been boiled away. The plaque particles pellet were reconstituted with 15 μl 8M Urea 100 mM Ammonium bicarbonate stock and 20 μl protease max solution. The protease max solution (Promega, Madison, Wis.) was prepared from stock by adding 60 μl 50 mM Ammonium bicarbonate and used for 3 solution digests (20 μl each). […] The tubes were incubated at 55° C. for 30 minutes. The tubes were then removed and brought to the room temperature followed by addition of 3.2 μl of 1M acrylamide and incubated at room temperature for 30 minutes. To the sample, 63 μL of 50 mM Ammonium bicarbonate was added for a final volume of 98 μl and 2 μl of trypsin (10 μg, Trypsin/Lys C Mix). After mixing the solution with pipet the samples were incubated at 37° C. overnight. After the overnight digest, the tryptic digest were quenched and acidified by adding 10 μl of 50% formic acid/water stock dilution. The samples were centrifuged at 10000 G for 2 minutes and purified using stage tip and used for MS/Mass analysis.
(§3) All MS/MS samples were analyzed using Sequest (Thermo Fisher Scientific, San Jose, Calif., USA; version 1.0). Sequest was set up to search the SUMS_uniprot_Human database (35847 entries) assuming the digestion enzyme strict trypsin. Sequest was searched with a fragment ion mass tolerance of 1.00 Da and a parent ion tolerance of 20 PPM. Propionamide of cysteine was specified in Sequest as a fixed modification. Oxidation of methionine and phospho of serine, threonine and tyrosine were specified in Sequest as variable modifications.
(§4) Scaffold (version Scaffold_4.2.1, Proteome Software Inc., Portland, Oreg.) was used to validate MS/MS based peptide and protein identifications. […] Protein probabilities were assigned by the Protein Prophet algorithm (Nesvizhskii, Al et al 2003).

The subject of test [2] is High Density cholesterol (Chl Large) plaque particles. Set-up: species or system human. The protocol: as §1, §2, §3, §4
The test system of test [3] is Tau plaque particles. Also noted: species or system human. The protocol:
For Tau-74 (74-102) (Exon 3/Insert 2 domain) preparation, 1 mg of Tau-74 was suspended in 1 mL of PBS and the sample was incubated at 37° C. for 2 hrs. Similarly for preparing Tau-275 (275-305) (Repeat 2 domain) 1 mg of the peptide was suspended in 1 mL of PBS and the sample was incubated at 37° C. for 2 hrs. After incubation, all the samples were centrifuged for 5 min. at 5000 rpm to remove precipitate, if any, and the supernatant containing oligomers/aggregates were used for in vitro amyloid plaque particles formation assay. For detecting Tau plaque particles, Thioflavin S (Ex/Em=430 nm/550 nm) amyloid binding fluorescent dye (10 μg) was used in the assay.
Next, to isolate Tau plaque particles, as performed for Abeta-42 and Abeta-28 plaque particles isolation, diluted serum samples were used for incubation separately with Tau-45, Tau-74 and Tau-275 oligomers/aggregates. Each assay was performed in 1 mL reaction (800 μL of 50% plasma or serum) and 200 μL (30 μg) of each Tau aggregates and the mixtures were incubated at 37° C. for 1 hr. To the each mixture Thioflavin S dye (120 μg) was added and the sample was incubated for additional 30 min at 37° C. After the incubation, each sample was directly used for sample acquisition using flow cytometer (FACS ARIA II, BD Biosciences, San Jose, Calif.). After initial detection of Tau plaque particles, gates were drawn in the acquisition blot to separately sort and isolate fluorescently labeled Tau plaque particles.
as §2, §3

Test [4] addresses T1, alpha-synuclein plaque particles (Homo sapiens, UniProt P37840).
T1 construct: 140 amino acids polypeptide
The protocol:
To prepare oligomers/aggregates of human alpha-synuclein (140 amino acids polypeptide), 1 mg of the recombinant alpha-synuclein protein was suspended in 1 mL of PBS and the sample was incubated at 37° C. for 2 hrs. After incubation, all the samples were centrifuged for 5 min. at 5000 rpm to remove precipitate, if any, and the supernatant containing oligomers/aggregates were used in vitro plaque particles formation assay. For detecting alpha-synuclein plaque particles Thioflavin S (Ex/Em=430 nm/550 nm) amyloid binding fluorescent dye (10 μg) was used.
Similarly, to isolate alpha-synuclein plaque particles, diluted plasma or serum samples obtained from AD subjects were used for incubation with alpha-synuclein plaque oligomers/aggregates. Each assay was performed in 1 mL reaction (800 μL of 50% plasma or serum) and 200 μL (30 μg) of the alpha-synuclein aggregates and the mixtures were incubated at 37° C. for 1 hr. To the mixture Thioflavin S dye (120 μg) was added and the sample was incubated for additional 30 min at 37° C. After the incubation, the mixture was directly used for sample acquisition using flow cytometer (FACS ARIA II, BD Biosciences, San Jose, Calif.). After initial detection of alpha-synuclein plaque particles, gates were drawn in the acquisition blot to separately sort and isolate fluorescently labeled alpha-synuclein particles.
as §2, §3
Scaffold (version Scaffold_4.2.1, Proteome Software Inc., Portland, Oreg.) was used to validate MS/MS based peptide and protein identifications.

Test [5] has as its target T2, Abeta-42 plaque particles (Homo sapiens, UniProt P05067).
T2 construct: Abeta 1-42
The method, then:
Next to isolate serum derived Abeta-42 plaque particles, the plasma or serum samples obtained from AD subjects were first centrifuged at 5,000 rpm for 5 min and the supernatants were transferred to new centrifuge tubes. Next, the supernatants were diluted in PBS to make 50% of the serum and plasma samples and used for incubation with Abeta-42 plaque oligomers/aggregates. Each assay was performed in 1 mL reaction (800 μL of 50% plasma or serum) and 200 μL (30 μg) of the Abeta-42 aggregates and the mixtures were incubated at 37° C. for 1 hr. To the mixture Thioflavin S dye (120 μg) was added and the sample was incubated for additional 30 min at 37° C. After the incubation, the mixture was directly used for sample acquisition using flow cytometer (FACS ARIA II, BD Biosciences, San Jose, Calif.). After initial detection of Abeta-42 plaque particles in the acquisition blot, gates were drawn in fluorescent dot blot to separately sort and isolate fluorescently labeled Abeta-42 particles.
as §2, §3
Scaffold (version Scaffold_4.2.1, Proteome Software Inc., Portland, Oreg.) was used to validate MS/MS based peptide and protein identifications. […] Protein probabilities were assigned by the Protein Prophet algorithm (Nesvizhskii, Al et al 2003). […] Proteins sharing significant peptide evidence were grouped into clusters. Proteins were annotated with GO terms from NCBI (downloaded Jan. 17, 2014).

Regarding Apolipoprotein D, the “Semi-quantitative analysis of proteins binding to different plaque particles: Chl small” value in test [1] is on record as 2. Moreover, the “Semi-quantitative analysis of proteins binding to different plaque particles: Chl Large” value in test [2] is on record as 2. Further, the “Semi-quantitative analysis of proteins binding to different plaque particles: Tau” value in test [3] came to 3. In addition, the “Semi-quantitative analysis of proteins binding to different plaque particles: Synuclein” value in test [4] is 1. In addition, in test [5], the “Semi-quantitative analysis of proteins binding to different plaque particles: Abeta-42” value is reported as 0.

With Cathepsin D, in test [1], the “Semi-quantitative analysis of proteins binding to different plaque particles: Chl small” value came out at 0. In addition, in test [2], the “Semi-quantitative analysis of proteins binding to different plaque particles: Chl Large” value was determined as 0. In addition, in test [3], the “Semi-quantitative analysis of proteins binding to different plaque particles: Tau” value is 0. Moreover, the “Semi-quantitative analysis of proteins binding to different plaque particles: Synuclein” value in test [4] came out at 0. Besides, the “Semi-quantitative analysis of proteins binding to different plaque particles: Abeta-42” value in test [5] came to 5.

Regarding Cluster of Alpha-2-macroglobulin, the “Semi-quantitative analysis of proteins binding to different plaque particles: Chl small” value in test [1] is on record as 43. In addition, the “Semi-quantitative analysis of proteins binding to different plaque particles: Chl Large” value in test [2] was determined as 43. For the same substance, the “Semi-quantitative analysis of proteins binding to different plaque particles: Tau” value in test [3] was determined as 45. Besides, the “Semi-quantitative analysis of proteins binding to different plaque particles: Synuclein” value in test [4] worked out at 44. In addition, the “Semi-quantitative analysis of proteins binding to different plaque particles: Abeta-42” value in test [5] is listed as 32.

Take Cluster of Complement C3: the “Semi-quantitative analysis of proteins binding to different plaque particles: Chl small” value in test [1] came out at 67. Besides, the “Semi-quantitative analysis of proteins binding to different plaque particles: Chl Large” value in test [2] is on record as 73. Also, the “Semi-quantitative analysis of proteins binding to different plaque particles: Tau” value in test [3] is recorded as 85. In addition, in test [4], the “Semi-quantitative analysis of proteins binding to different plaque particles: Synuclein” value is given as 71. Further, in test [5], the “Semi-quantitative analysis of proteins binding to different plaque particles: Abeta-42” value amounted to 63.

Take Cluster of Desmoplakin: in test [1], the “Semi-quantitative analysis of proteins binding to different plaque particles: Chl small” value turned out to be 0. Also, in test [2], the “Semi-quantitative analysis of proteins binding to different plaque particles: Chl Large” value was determined as 0. For the same substance, in test [3], the “Semi-quantitative analysis of proteins binding to different plaque particles: Tau” value worked out at 0. The “Semi-quantitative analysis of proteins binding to different plaque particles: Synuclein” value in test [4] came to 0. In addition, the “Semi-quantitative analysis of proteins binding to different plaque particles: Abeta-42” value in test [5] came out at 12.

For Cluster of Haptoglobin, the “Semi-quantitative analysis of proteins binding to different plaque particles: Chl small” value in test [1] is 31. Further, the “Semi-quantitative analysis of proteins binding to different plaque particles: Chl Large” value in test [2] came out at 29. The “Semi-quantitative analysis of proteins binding to different plaque particles: Tau” value in test [3] came out at 26. Moreover, the “Semi-quantitative analysis of proteins binding to different plaque particles: Synuclein” value in test [4] came out at 24. In test [5], the “Semi-quantitative analysis of proteins binding to different plaque particles: Abeta-42” value turned out to be 25.

For the substance Cluster of Hemoglobin subunit beta, the “Semi-quantitative analysis of proteins binding to different plaque particles: Chl small” value in test [1] is 2. For the same substance, in test [2], the “Semi-quantitative analysis of proteins binding to different plaque particles: Chl Large” value is recorded as 3. Moreover, the “Semi-quantitative analysis of proteins binding to different plaque particles: Tau” value in test [3] was 3. In addition, the “Semi-quantitative analysis of proteins binding to different plaque particles: Synuclein” value in test [4] is 5. The “Semi-quantitative analysis of proteins binding to different plaque particles: Abeta-42” value in test [5] is 4.

Cluster of Histone H1.2: the “Semi-quantitative analysis of proteins binding to different plaque particles: Chl small” value in test [1] turned out to be 0. For the same substance, the “Semi-quantitative analysis of proteins binding to different plaque particles: Chl Large” value in test [2] amounted to 0. For the same substance, the “Semi-quantitative analysis of proteins binding to different plaque particles: Tau” value in test [3] worked out at 0. Moreover, the “Semi-quantitative analysis of proteins binding to different plaque particles: Synuclein” value in test [4] is 0. In test [5], the “Semi-quantitative analysis of proteins binding to different plaque particles: Abeta-42” value was 2.

For Cluster of Ig gamma-1 chain C region, the “Semi-quantitative analysis of proteins binding to different plaque particles: Chl small” value in test [1] is listed as 63. The “Semi-quantitative analysis of proteins binding to different plaque particles: Chl Large” value in test [2] was determined as 57. Moreover, in test [3], the “Semi-quantitative analysis of proteins binding to different plaque particles: Tau” value was determined as 37. Moreover, the “Semi-quantitative analysis of proteins binding to different plaque particles: Synuclein” value in test [4] was determined as 56. The “Semi-quantitative analysis of proteins binding to different plaque particles: Abeta-42” value in test [5] was found to be 23.

For the substance “Cluster of Ig heavy chain V-III region TEI”, in test [1], the “Semi-quantitative analysis of proteins binding to different plaque particles: Chl small” value is 6. The “Semi-quantitative analysis of proteins binding to different plaque particles: Chl Large” value in test [2] came out at 5. Also, the “Semi-quantitative analysis of proteins binding to different plaque particles: Tau” value in test [3] is reported as 5. For the same substance, the “Semi-quantitative analysis of proteins binding to different plaque particles: Synuclein” value in test [4] is recorded as 4. Further, the “Semi-quantitative analysis of proteins binding to different plaque particles: Abeta-42” value in test [5] came to 7.

In the case of “Cluster of Ig kappa chain V-I region HK102”, in test [1], the “Semi-quantitative analysis of proteins binding to different plaque particles: Chl small” value was 1. In addition, the “Semi-quantitative analysis of proteins binding to different plaque particles: Chl Large” value in test [2] was determined as 1. Besides, in test [3], the “Semi-quantitative analysis of proteins binding to different plaque particles: Tau” value amounted to 1. For the same substance, in test [4], the “Semi-quantitative analysis of proteins binding to different plaque particles: Synuclein” value came to 1. Moreover, the “Semi-quantitative analysis of proteins binding to different plaque particles: Abeta-42” value in test [5] is on record as 5.
